Experimental data taken from publication PMC5218480 (PLoS ONE, 2017).

Tested on: MV-4-11 cells
Experiment: Gene expression microarray analysis (Affymetrix PrimeView) and GSEA
Type: cell-based, human
Parameters: RFU PODN (11730768_x_at) / Fold change /veh PODN (11730768_x_at) / RFU LINC00158 (11744669_a_at) / Fold change /veh LINC00158 (11744669_a_at) / RFU DUSP10 (11751237_a_at) / Fold change /veh DUSP10 (11751237_a_at) / RFU ID3 (11757404_x_at) / Fold change /veh ID3 (11757404_x_at) / RFU PLEKHG5 (11737974_s_at) / Fold change /veh PLEKHG5 (11737974_s_at) / RFU LRRC4B (11730491_at) / Fold change /veh LRRC4B (11730491_at) / RFU GIMAP4 (11747438_a_at) / Fold change /veh GIMAP4 (11747438_a_at) / RFU KRT8 (11758183_x_at) / Fold change /veh KRT8 (11758183_x_at) / RFU CNN1 (11734310_a_at) / Fold change /veh CNN1 (11734310_a_at) / RFU VPS37D (11726825_at) / Fold change /veh VPS37D (11726825_at) / RFU C10orf10 (11716522_x_at) / Fold change /veh C10orf10 (11716522_x_at) / RFU KIR2DL2 /// KIR2DL4 /// KIR2DL5A /// KIR2DL5B /// KIR2DS1 /// KIR2DS2 /// KIR2DS3 /// KIR2DS4 /// KIR3DL3 /// KIR3DL3 /// KIR3DS1 (11738374_at) / Fold change /veh KIR2DL2 /// KIR2DL4 /// KIR2DL5A /// KIR2DL5B /// KIR2DS1 /// KIR2DS2 /// KIR2DS3 /// KIR2DS4 /// KIR3DL3 /// KIR3DL3 /// KIR3DS1 (11738374_at) / RFU C1QL1 (11718748_at) / Fold change /veh C1QL1 (11718748_at) / RFU TMPRSS4 (11747572_a_at) / Fold change /veh TMPRSS4 (11747572_a_at) / RFU HAMP (11756126_x_at) / Fold change /veh HAMP (11756126_x_at) / RFU RNFT2 (11725882_a_at) / Fold change /veh RNFT2 (11725882_a_at) / RFU NR4A2 (11747474_a_at) / Fold change /veh NR4A2 (11747474_a_at) / RFU ABCC12 (11746883_a_at) / Fold change /veh ABCC12 (11746883_a_at) / RFU TMEM136 (11760407_x_at) / Fold change /veh TMEM136 (11760407_x_at) / RFU CLDN22 /// WWC2 (11732394_at) / Fold change /veh CLDN22 /// WWC2 (11732394_at) / RFU HLA-DPB1 (11760878_x_at) / Fold change /veh HLA-DPB1 (11760878_x_at) / RFU SPINT1 (11716480_a_at) / Fold change /veh SPINT1 (11716480_a_at) / RFU GAP43 (11754022_s_at) / Fold change /veh GAP43 (11754022_s_at) / RFU A4GNT (11735810_at) / Fold change /veh A4GNT (11735810_at) / RFU PRB3 (11715151_x_at) / Fold change /veh PRB3 (11715151_x_at) / RFU TUBB4B (11761932_at) / Fold change /veh TUBB4B (11761932_at) / RFU CAPN14 (11732068_a_at) / Fold change /veh CAPN14 (11732068_a_at) / RFU TMCC2 (11721928_a_at) / Fold change /veh TMCC2 (11721928_a_at) / RFU IRGQ (11745062_a_at) / Fold change /veh IRGQ (11745062_a_at) / RFU FAM174B (11720279_a_at) / Fold change /veh FAM174B (11720279_a_at) / RFU TMPRSS4 (11748680_a_at) / Fold change /veh TMPRSS4 (11748680_a_at) / RFU FAM212B (11763350_a_at) / Fold change /veh FAM212B (11763350_a_at) / RFU PLEKHG5 (11743358_a_at) / Fold change /veh PLEKHG5 (11743358_a_at) / RFU ZSCAN30 (11745921_a_at) / Fold change /veh ZSCAN30 (11745921_a_at) / RFU CMKLR1 (11741424_a_at) / Fold change /veh CMKLR1 (11741424_a_at) / RFU LOC101060620 /// MAPK8IP1 (11723275_at) / Fold change /veh LOC101060620 /// MAPK8IP1 (11723275_at) / RFU SPTSSB (11747773_x_at) / Fold change /veh SPTSSB (11747773_x_at) / RFU PRSS12 (11739890_at) / Fold change /veh PRSS12 (11739890_at) / RFU BIN1 (11741810_x_at) / Fold change /veh BIN1 (11741810_x_at) / RFU WNT11 (11732464_a_at) / Fold change /veh WNT11 (11732464_a_at) / RFU C10orf10 (11716521_a_at) / Fold change /veh C10orf10 (11716521_a_at) / RFU C5orf56 (11738089_at) / Fold change /veh C5orf56 (11738089_at) / RFU CYB561 (11721691_x_at) / Fold change /veh CYB561 (11721691_x_at) / RFU ANKRD19P (11752326_a_at) / Fold change /veh ANKRD19P (11752326_a_at) / RFU OR2T12 /// OR2T33 /// OR2T8 (11738714_s_at) / Fold change /veh OR2T12 /// OR2T33 /// OR2T8 (11738714_s_at) / RFU VCAN (11748164_a_at) / Fold change /veh VCAN (11748164_a_at) / RFU JSRP1 (11732532_at) / Fold change /veh JSRP1 (11732532_at) / RFU KRTAP10-11 (11738290_x_at) / Fold change /veh KRTAP10-11 (11738290_x_at) / RFU MYO3A (11730013_a_at) / Fold change /veh MYO3A (11730013_a_at) / RFU EBF3 (11725865_a_at) / Fold change /veh EBF3 (11725865_a_at) / RFU CAMK2N1 (11719241_x_at) / Fold change /veh CAMK2N1 (11719241_x_at) / RFU C5orf56 (11738088_a_at) / Fold change /veh C5orf56 (11738088_a_at) / RFU OLFML3 (11715873_a_at) / Fold change /veh OLFML3 (11715873_a_at) / RFU LOC100653217 /// NTM (11731650_a_at) / Fold change /veh LOC100653217 /// NTM (11731650_a_at) / RFU MAPK11 (11762145_a_at) / Fold change /veh MAPK11 (11762145_a_at) / RFU FIZ1 (11724087_x_at) / Fold change /veh FIZ1 (11724087_x_at) / RFU OASL (11726364_x_at) / Fold change /veh OASL (11726364_x_at) / RFU SOX15 (11748057_x_at) / Fold change /veh SOX15 (11748057_x_at) / RFU CD79A (11719716_a_at) / Fold change /veh CD79A (11719716_a_at) / RFU HIST1H1D (11736915_at) / Fold change /veh HIST1H1D (11736915_at) / RFU CASKIN2 (11723855_a_at) / Fold change /veh CASKIN2 (11723855_a_at) / RFU LOC730098 (11760151_x_at) / Fold change /veh LOC730098 (11760151_x_at) / RFU OR4N2 (11742367_at) / Fold change /veh OR4N2 (11742367_at) / RFU PRRT2 (11749266_a_at) / Fold change /veh PRRT2 (11749266_a_at) / RFU SNX32 (11753110_a_at) / Fold change /veh SNX32 (11753110_a_at) / RFU CDHR5 (11726645_a_at) / Fold change /veh CDHR5 (11726645_a_at) / RFU RCAN1 (11760418_a_at) / Fold change /veh RCAN1 (11760418_a_at) / RFU FAM167A (11723789_a_at) / Fold change /veh FAM167A (11723789_a_at) / RFU FAM26E (11764081_at) / Fold change /veh FAM26E (11764081_at) / RFU ISYNA1 (11749810_s_at) / Fold change /veh ISYNA1 (11749810_s_at) / RFU ACY1 (11761880_at) / Fold change /veh ACY1 (11761880_at) / RFU 11764098_at / Fold change /veh 11764098_at / RFU SAMD14 (11745864_x_at) / Fold change /veh SAMD14 (11745864_x_at) / RFU NPB (11741838_a_at) / Fold change /veh NPB (11741838_a_at) / RFU TMPRSS6 (11731388_a_at) / Fold change /veh TMPRSS6 (11731388_a_at) / RFU KRTAP10-2 (11738614_at) / Fold change /veh KRTAP10-2 (11738614_at) / RFU ARHGAP8 /// PRR5-ARHGAP8 (11727945_x_at) / Fold change /veh ARHGAP8 /// PRR5-ARHGAP8 (11727945_x_at) / RFU KRTAP5-7 /// NADSYN1 (11734609_at) / Fold change /veh KRTAP5-7 /// NADSYN1 (11734609_at) / RFU RASL12 (11751679_a_at) / Fold change /veh RASL12 (11751679_a_at) / RFU CDKN2B (11736163_a_at) / Fold change /veh CDKN2B (11736163_a_at) / RFU PRF1 (11729649_at) / Fold change /veh PRF1 (11729649_at) / RFU, ZNF638 /// ZNF638-IT1 / Fold change vs veh, ZNF638 /// ZNF638-IT1 / RFU, PANK3 / Fold change vs veh, PANK3 / RFU, SH3YL1 / Fold change vs veh, SH3YL1 / RFU, ZEB2 / Fold change vs veh, ZEB2 / RFU, NRIP1 / Fold change vs veh, NRIP1 / RFU, PTTG1IP / Fold change vs veh, PTTG1IP / RFU, CAPN2 / Fold change vs veh, CAPN2 / RFU, MED14 / Fold change vs veh, MED14 / RFU, SNORA58 / Fold change vs veh, SNORA58 / RFU, C1orf63 / Fold change vs veh, C1orf63 / RFU, LRRFIP1 / Fold change vs veh, LRRFIP1 / RFU, NDUFAF7 / Fold change vs veh, NDUFAF7 / RFU, SLC12A2 / Fold change vs veh, SLC12A2 / RFU, IBTK / Fold change vs veh, IBTK / RFU, ESF1 / Fold change vs veh, ESF1 / Fold change vs veh, TMEM50B / RFU, TAOK1 / Fold change vs veh, TAOK1 / RFU, ACBD3 / Fold change vs veh, ACBD3 / RFU, TMA16 / Fold change vs veh, TMA16 / RFU, RWDD3 / Fold change vs veh, RWDD3 / RFU, BCAT1 / Fold change vs veh, BCAT1 / RFU, EDEM3 / Fold change vs veh, EDEM3 / RFU, TMEM33 / Fold change vs veh, TMEM33 / RFU, WDR75 / Fold change vs veh, WDR75 / RFU, AHCTF1 / Fold change vs veh, AHCTF1 / RFU, TFRC / Fold change vs veh, TFRC / RFU, ZDHHC17 / Fold change vs veh, ZDHHC17 / RFU, NOM1 / Fold change vs veh, NOM1 / RFU, ARL8B / Fold change vs veh, ARL8B / RFU, ZBTB11 / Fold change vs veh, ZBTB11 / RFU, TAMM41 / Fold change vs veh, TAMM41 / RFU, KIAA1704 /// LOC100996395 / Fold change vs veh, KIAA1704 /// LOC100996395 / RFU, ING1 / Fold change vs veh, ING1 / RFU, TRMT61B / Fold change vs veh, TRMT61B / RFU, FUBP3 / Fold change vs veh, FUBP3 / RFU, TP53 / Fold change vs veh, TP53 / RFU, TNKS2 / Fold change vs veh, TNKS2 / RFU, ZFP14 / Fold change vs veh, ZFP14 / RFU, ACTR2 / Fold change vs veh, ACTR2 / RFU, PPP3R1 / Fold change vs veh, PPP3R1 / RFU, PIK3R1 / Fold change vs veh, PIK3R1 / RFU, HNRNPA1 / Fold change vs veh, HNRNPA1 / RFU, RNF170 / Fold change vs veh, RNF170 / RFU, ZNF28 / Fold change vs veh, ZNF28 / RFU, RNGTT / Fold change vs veh, RNGTT / RFU, OGT / Fold change vs veh, OGT / RFU, BRD1 / Fold change vs veh, BRD1 / RFU, MARS / Fold change vs veh, MARS / RFU, ZNF655 / Fold change vs veh, ZNF655 / RFU, FAHD1 / Fold change vs veh, FAHD1 / RFU, BDP1 / Fold change vs veh, BDP1 / RFU, LRRCC1 / Fold change vs veh, LRRCC1 / RFU, ARID1A / Fold change vs veh, ARID1A / RFU, ZNF146 / Fold change vs veh, ZNF146 / RFU, ZNF330 / Fold change vs veh, ZNF330 / RFU, GPN3 / Fold change vs veh, GPN3 / RFU, C9orf123 / Fold change vs veh, C9orf123 / RFU, N4BP2L2 / Fold change vs veh, N4BP2L2 / RFU, ARFIP1 / Fold change vs veh, ARFIP1 / RFU, FAM179B / Fold change vs veh, FAM179B / RFU, BCL10 / Fold change vs veh, BCL10 / RFU, UHRF1BP1L / Fold change vs veh, UHRF1BP1L / RFU, BET1 / Fold change vs veh, BET1 / RFU, CNOT2 / Fold change vs veh, CNOT2 / RFU, ZNF268 / Fold change vs veh, ZNF268 / Fold change vs veh, ZNF507 / RFU, DGCR2 / Fold change vs veh, DGCR2 / RFU, WDSUB1 / Fold change vs veh, WDSUB1 / Fold change vs veh, HSP90B1 /// MIR3652 / RFU, ADSS / Fold change vs veh, ADSS / RFU, GK / Fold change vs veh, GK / RFU, ZNF148 / Fold change vs veh, ZNF148 / RFU, TAF9 / Fold change vs veh, TAF9 / RFU, SLC1A5 / Fold change vs veh, SLC1A5 / RFU, SLMO2 / Fold change vs veh, SLMO2 / RFU, ABCC4 / Fold change vs veh, ABCC4 / RFU, LOC101060439 /// RAP1B / Fold change vs veh, LOC101060439 /// RAP1B / RFU, RFX7 / Fold change vs veh, RFX7 / RFU, GTPBP10 / Fold change vs veh, GTPBP10 / RFU, CNEP1R1 / Fold change vs veh, CNEP1R1 / RFU, BIVM-ERCC5 /// ERCC5 / Fold change vs veh, BIVM-ERCC5 /// ERCC5 / RFU, ILF3 / Fold change vs veh, ILF3 / RFU 11762660_at / Fold change /veh 11762660_at / RFU VCAN (11757783_s_at) / Fold change /veh VCAN (11757783_s_at) / RFU DDX43 (11728927_at) / Fold change /veh DDX43 (11728927_at) / RFU KRT8 (11758188_x_at) / Fold change /veh KRT8 (11758188_x_at) / RFU NKD1 (11759106_at) / Fold change /veh NKD1 (11759106_at) / RFU SRD5A1 (11742802_a_at) / Fold change /veh SRD5A1 (11742802_a_at) / RFU TPSAB1 /// TPSB2 (11721975_s_at) / Fold change /veh TPSAB1 /// TPSB2 (11721975_s_at) / RFU GSTM3 (11746129_a_at) / Fold change /veh GSTM3 (11746129_a_at) / RFU IL23R (11737362_x_at) / Fold change /veh IL23R (11737362_x_at) / RFU TMEM51 (11727254_a_at) / Fold change /veh TMEM51 (11727254_a_at) / RFU PIWIL2 (11732686_x_at) / Fold change /veh PIWIL2 (11732686_x_at) / RFU ORM1 (11744905_x_at) / Fold change /veh ORM1 (11744905_x_at) / RFU CCDC152 (11743942_at) / Fold change /veh CCDC152 (11743942_at) / RFU ECM1 (11717891_a_at) / Fold change /veh ECM1 (11717891_a_at) / RFU IL23R (11748794_a_at) / Fold change /veh IL23R (11748794_a_at) / RFU TNFAIP8L3 (11732012_x_at) / Fold change /veh TNFAIP8L3 (11732012_x_at) / RFU MBOAT4 (11741988_at) / Fold change /veh MBOAT4 (11741988_at) / RFU 11764193_at / Fold change /veh 11764193_at / RFU TMEM53 (11763286_at) / Fold change /veh TMEM53 (11763286_at) / RFU MAGEB2 (11727129_at) / Fold change /veh MAGEB2 (11727129_at) / RFU TMEM200A (11744735_a_at) / Fold change /veh TMEM200A (11744735_a_at) / RFU CCDC152 (11751479_a_at) / Fold change /veh CCDC152 (11751479_a_at) / RFU FAM211A (11726209_a_at) / Fold change /veh FAM211A (11726209_a_at) / RFU RGS16 (11746705_a_at) / Fold change /veh RGS16 (11746705_a_at) / RFU VCAN (11755009_s_at) / Fold change /veh VCAN (11755009_s_at) / RFU RHOB (11743442_s_at) / Fold change /veh RHOB (11743442_s_at) / RFU RGS16 (11720943_a_at) / Fold change /veh RGS16 (11720943_a_at) / RFU RGS16 (11720944_at) / Fold change /veh RGS16 (11720944_at) / RFU, VPS4B / Fold change vs veh, VPS4B / RFU, CREB1 / Fold change vs veh, CREB1 / RFU, DNAJC13 / Fold change vs veh, DNAJC13 / RFU, GNAQ / Fold change vs veh, GNAQ / RFU, CDK5R1 / Fold change vs veh, CDK5R1 / RFU, ZRANB3 / Fold change vs veh, ZRANB3 / RFU, CUL4A / Fold change vs veh, CUL4A / RFU, CCNY / Fold change vs veh, CCNY / RFU, UFL1 / Fold change vs veh, UFL1 / RFU, COG3 / Fold change vs veh, COG3 / RFU, DIAPH2 / Fold change vs veh, DIAPH2 / RFU, SKA2 / Fold change vs veh, SKA2 / RFU, AFF3 / Fold change vs veh, AFF3 / RFU, LMF1 / Fold change vs veh, LMF1 / RFU, IPO11 / Fold change vs veh, IPO11 / RFU, DFFB / Fold change vs veh, DFFB / RFU, FOXP1 / Fold change vs veh, FOXP1 / RFU, CARD8 / Fold change vs veh, CARD8 / RFU, STRN3 / Fold change vs veh, STRN3 / RFU, ADK / Fold change vs veh, ADK / RFU, RASSF2 / Fold change vs veh, RASSF2 / RFU, WIPF1 / Fold change vs veh, WIPF1 / RFU, LARP1B / Fold change vs veh, LARP1B / RFU, RASA1 / Fold change vs veh, RASA1 / RFU, RB1 / Fold change vs veh, RB1 / RFU, PPFIA1 / Fold change vs veh, PPFIA1 / RFU, MAT2A / Fold change vs veh, MAT2A / RFU, CCT5 / Fold change vs veh, CCT5 / RFU, WDR92 / Fold change vs veh, WDR92 / RFU, CUX1 / Fold change vs veh, CUX1 / RFU, TTC7A / Fold change vs veh, TTC7A / RFU, TMEM135 / Fold change vs veh, TMEM135 / RFU, DEPTOR / Fold change vs veh, DEPTOR / RFU, CPM / Fold change vs veh, CPM / RFU, DNAJB6 / Fold change vs veh, DNAJB6 / RFU, CACNA2D3 / Fold change vs veh, CACNA2D3 / RFU, DTX4 / Fold change vs veh, DTX4 / RFU, TFCP2 / Fold change vs veh, TFCP2 / RFU, GMCL1 /// GMCL1P1 / Fold change vs veh, GMCL1 /// GMCL1P1 / RFU, AEBP2 / Fold change vs veh, AEBP2 / RFU, SNHG1 /// SNORD22 /// SNORD25 /// SNORD26 /// SNORD27 /// SNORD28 /// SNORD29 /// SNORD31 / Fold change vs veh, SNHG1 /// SNORD22 /// SNORD25 /// SNORD26 /// SNORD27 /// SNORD28 /// SNORD29 /// SNORD31 / Fold change (Aza/veh), C12orf56 (ProbeSet 11735607_a_at) / Fold change (ACY-1035/veh), C12orf56 (ProbeSet 11735607_a_at) / Fold change (Aza/veh), FGFR1OP (ProbeSet 11751329_s_at) / Fold change (ACY-1035/veh), FGFR1OP (ProbeSet 11751329_s_at) / Fold change (Aza/veh), VPS36 (ProbeSet 11739960_a_at) / Fold change (ACY-1035/veh), VPS36 (ProbeSet 11739960_a_at) / RFU SYPL1 (11715823_x_at) / Fold change /veh SYPL1 (11715823_x_at) / RFU IGFBP7 (11715501_s_at) / Fold change /veh IGFBP7 (11715501_s_at) / RFU REEP3 (11722064_at) / Fold change /veh REEP3 (11722064_at) / RFU IGLL1 (11728026_x_at) / Fold change /veh IGLL1 (11728026_x_at): dose or concentration left out as unconfirmed
Conditions: MV-4-11 cells, 48 hours

## Nc1ccc(-c2cccs2)cc1NC(=O)c1ccc2c(c1)cc(C1CC1)n2CCN1CCOCC1 [ACY-1035]
  Fold change /veh CLDN22 /// WWC2 (11732394_at): 1.04
